Reference: US4786644A, “1-aryl-3-quinolinecarboxamide” (Hoechst-Roussel Pharmaceuticals Inc., priority 1987, dated 1988)

Legend:
[1] = system: phenyl-p-quinone writhing; assay: phenyl-p-quinone writhing assay in mice (analgesic); format: in vivo, mouse (male, Charles River, CD-1); conditions: for Analgesic Activity, % Inhibition of Writhing: mouse, screening dose of 20 mg/kg, s.c.
Experimental: The procedure employed to determine analgetic utility is a modification of the phenyl-p-quinone writhing assay in mice, a standard assay for analgetic activity [Proc. Soc. Exptl. […] The solution is administered to the subject mice intraperitoneally at a dose of 10 ml per kg of body weight. A characteristic "writhe", an inward rotation of one or more feet with twisting and turning of the trunk, drawing in of the abdominal wall, lordosis and arching of the back, is produced.
A total of 28 male mice (Charles River, CD-1), weighing 18 to 30 grams, are employed for a time response. The subject animals receive food and water ad libitum. Test compounds are dissolved in distilled water, or suspended in distilled water containing one drop of a suitable surfactant, such as Tween-80.
Four groups of five animals (20 animals) are given the test compound subcutaneously (s.c.) or orally (p.o.) at 15, 30, 45 and 60 minutes prior to administration of the phenyl-p-quinone. A control group (2 animals per group) receive an equal volume of the vehicle. After the administration of the phenyl-p-quinone, the mice are placed separately in one liter beakers, and after five minutes, are observed for ten minutes. The number of writhes for each animal is recorded. The following formula is used to compute the percent inhibition: [formula]
A dose range determination is run in the same manner as the time response except 10 animals per group are tested at the peak time of test drug activity. Fifty animals, 4 test drug groups, and a vehicle control are employed. Animals are dosed and tested in a randomized manner. The time period with the greatest percent of inhibition is considered the peak time.

[2] = system: carrageenan-induced rat paw edema; assay: carrageenan-induced rat paw edema antiinflammatory assay; format: in vivo; conditions: screening dose of 100 mg/kg, p.o.
[3] = system: adjuvant-induced polyarthritis syndrome; assay: adjuvant-induced polyarthritis syndrome in rats; format: in vivo, rat (male Charles River-Wistar Lewis); conditions: rat, p.o., daily for 21 days
Experimental: This activity was measured by a procedure similar to that described by C. M. Pearson and F. D. Wood, Arthritis and Rheumatism, 2, 440 (1959).
Groups of 10 male Charles River-Wistar Lewis rats weighing 150 to 175 g were individually housed and maintained on a regular rat chow diet. Water was given ad libitum. The adjuvant was prepared by suspending 75 mg of Mycobacterium butyricum (Difco Laboratories, Detroit, Mich.) in 10 ml of white paraffin oil with continuous stirring for 2 hours at room temperature prior to administration. Test compounds are prepared by suspending the drug in water, adding one drop of Tween 80 per 10 ml of suspension, and homogenizing. The adjuvant suspension (0.1 ml) was injected into the footpad of the left hind paw of the rat. Test compound suspensions were adminstered orally (10 ml/kg) the day before adjuvant suspension injection and the administration was continued daily for 21 days. One group of ten rats was used for the test drug. Standard, adjuvant-injected control and non-injected control groups were run along with the test drug. Control animals received vehicle (10 ml/kg). Injected and non-injected paw volumes were determined on the day the adjuvant suspension was given, and on subsequent days thereafter (usually days 5, 10, 18, and 21) by the method of C. A. Winter, et al., Proc. Soc. Exp. Biol. Med., 111, 544 (1962).
The percent inhibition of paw volume (injected and non-injected paw) were calculated by the following formula: [formula] The results of the adjuvant-induced polyarthritis syndrome test procedure for several of the compounds of this invention are provided in Table 2.

Row | Compound | Analgesic Activity, % Inhibition of Writhing [1] | Inhibition of Carrageenan-Induced Rat Paw Edema, Percent Inhibition [2] | percent inhibition of paw volume, Adjuvant-Treated Paw ([3]; screening dose of 50 mg/kg) | percent inhibition of paw volume, Non-Injected Paw ([3]; screening dose of 50 mg/kg) | other results
1 | Cc1csc(NC(=O)C2=C(O)c3ccccc3N(c3ccccc3)C2)n1 [Example 10, 1,2-Dihydro-4-hydroxy-N-(4-methyl-2-thiazolyl)-1-phenyl-3-quinolinecarboxamide] | 36% | – | – | – | –
2 | Cc1csc(NC(=O)c2cn(-c3ccccc3)c3ccccc3c2=O)n1 [Example 18, 1,4-Dihydro-N-(4-methyl-2-thiazolyl)-4-oxo-1-phenyl-3-quinolinecarboxamide] | – | -28% | -12% | -26% | –
3 | CC(=O)Oc1ccccc1C(=O)O [Aspirin, reference compound] | – | -29% | -22% | -33% | ED50 ([1]; Mus musculus, sc, read-out: ED50 (dose effecting 50% inhibition of writhing)): 32.8 mg/kg
4 | O=C(Nc1ccccn1)c1cn(-c2ccccc2)c2ccccc2c1=O [Example 13, 1,4-Dihydro-4-oxo-1-phenyl-N-(2-pyridyl)-3-quinolinecarboxamide] | – | -25% | – | – | –
5 | O=C(Nc1ccc(Cl)cn1)c1nc(-c2ccccc2)c2ccccc2c1O [Example 4, N-(5-Chloro-2-pyridyl)-4-hydroxy-1-phenyl-3-isoquinolinecarboxamide] | 57% | – | -22% | -38% | –
6 | O=C(Nc1cccc(Cl)c1)c1nc(-c2ccccc2)c2ccccc2c1O [Example 3, N-(3-Chlorophenyl)-4-hydroxy-1-phenyl-3-isoquinolinecarboxamide] | 51% | – | – | – | –
7 | O=C(Nc1ccc(Br)cn1)C1=C(O)c2ccccc2N(c2ccccc2)C1 [Example 12, N-(5-Bromo-2-pyridyl)-1,2-dihydro-4-hydroxy-1-phenyl-3-quinolinecarboxamide] | 39% | – | -2% | -22% | –
8 | Cc1ccc(NC(=O)c2cn(-c3ccccc3)c3ccccc3c2=O)nc1 [Example 20, 1,4-Dihydro-N-(5-methyl-2-pyridyl)-4-oxo-1-phenyl-3-quinolinecarboxamide] | 30% | – | – | – | –
9 | O=C(Nc1ccccc1)C1=C(O)c2ccccc2N(c2ccccc2)C1 [Example 8, 1,2-Dihydro-4-hydroxy-1-phenyl-N-phenyl-3-quinolinecarboxamide] | – | -28% | -5% | -26% | –
10 | Cc1cccc(NC(=O)c2cn(-c3ccccc3)c3ccccc3c2=O)n1 [Example 19, 1,4-Dihydro-N-(6-methyl-2-pyridyl)-4-oxo-1-phenyl-3-quinolinecarboxamide] | 35% | – | – | – | –
11 | O=C(Nc1cnccn1)c1cn(-c2ccccc2)c2ccccc2c1=O [Example 17, 1,4-Dihydro-4-oxo-1-phenyl-N-(2-pyrazinyl)-3-quinolinecarboxamide] | – | -23% | -7% | -23% | –
12 | O=C(Nc1cnccn1)C1=C(O)c2ccccc2N(c2ccccc2)C1 [Example 9, 1,2-Dihydro-4-hydroxy-1-phenyl-N-(2-pyrazinyl)-3-quinolinecarboxamide] | 31% | -24% | – | – | –
13 | O=C(Nc1ccccn1)c1nc(-c2ccccc2)c2ccccc2c1O [Example 1, 4-Hydroxy-1-phenyl-N-(2-pyridyl)-3-isoquinolinecarboxamide] | – | – | – | – | percent inhibition of paw volume, Adjuvant-Treated Paw ([3]; screening dose of 45 mg/kg): +1%; percent inhibition of paw volume, Non-Injected Paw ([3]; screening dose of 45 mg/kg): -17%
